Results from paper PMC5426640, “A novel multifunctional peptide oligomer of bacitracin with possible bioindustrial and therapeutic applications from a Korean food-source Bacillus strain” (PLoS ONE, 2017).
Where a SMILES comes first, the peptide text is derived from it. Bridges are numbered along the chain shown (N, C = ends). [ ]: non-standard residue; d: D form. The star is where a group is joined. Ileψ(thiazoline)Cys = CC[C@H](C)[C@H](N)C1=N[C@H](C(=O)*)CS1; dOrn = NCCC[C@@H](N)C(=O)O

How the values were obtained:
[1] = tested on: NO production in LPS-stimulated RAW 264.7 cells; experiment: LPS-induced NO production, Griess reaction; format: cell-based, mouse; conditions: 10, 50, or 100 μg/mL; LPS 1 μg/mL, 24 h; Griess reagent
Method: NO levels in the culture supernatants were measured by the Griess reaction. Cells (10^6 cells/mL) were seeded in 6-well plates and pretreated with the indicated concentrations of AMP for 30 min before stimulation with 1 μg/mL LPS for 24 h. The sample supernatants were mixed with an equal volume of the Griess reagent (1% sulfanilamide in 5% phosphoric acid and 0.1% naphthyl ethylene diamine dihydrochloride), and then incubated at room temperature for 10 min. The absorbance was measured at 550 nm on a microplate reader (Thermo Fisher Co.). The nitrite concentration was determined using a dilution of sodium nitrite as a standard.

[2] = tested on: Micrococcus luteus ATCC 9341; experiment: Thermostability, residual antimicrobial activity; format: physicochemical; conditions: residual antimicrobial activity vs Micrococcus luteus ATCC 9341, mean ± SD, n = 3
Method: (§1) After heat treatment (30–121°C, 10–60 min), the samples were tested for residual antimicrobial activity against indicator strain Micrococcus luteus ATCC 9341. Effects of pH on antimicrobial activity were estimated by varying the pH levels. Samples were diluted in the following buffers: citrate with Na2HPO4 (pH 3.0–7.0), Tris-HCl (pH 7.0–9.0), and NaHCO3 with NaOH (pH 10.0–11.0). After incubation for 1 h at room temperature, pH in the samples was adjusted to 7.0, and the samples were tested for antimicrobial activity against the indicator strain. The AMP was digested with various proteolytic enzymes at a final concentration of 1 mg/mL: […] (50 mM Tris-HCl, pH 7.5), protease K (50 mM Tris-HCl, pH 7.5), α-chymotrypsin (50 mM Tris-HCl, pH 7.5), or trypsin (50 mM Tris-HCl, pH 8.0). After 1-h incubation at room temperature, the enzymes were boiled for 2 min for inactivation.

[3] = tested on: IL-6 mRNA; experiment: RT-PCR of mRNA expression in LPS-stimulated RAW 264.7 cells; format: cell-based, mouse; conditions: 10, 50, or 100 μg/mL, LPS 2–12 h, GAPDH control
Method: (§2) Total RNA from the AMP-treated cells was prepared using the RNAiso Reagent (Takara) and was stored at −80°C until use. For the detection of iNOS, COX-2, TNF-α, IL-Iβ, and IL-6, total RNA was extracted after stimulation and treatment. The mRNA expression levels of iNOS, COX-2, TNF-α, IL-Iβ, and IL-6 in the treated cells were compared to the expression levels in control cells. One microgram of RNA was reverse-transcribed into cDNA and used as a template for PCR amplification. PCR was performed on a DNA Gene Cycler, under the following conditions: 40 cycles of denaturation at 94°C for 30 s, annealing at 58°C for 30 s, and primer extension at 72°C for 40 s. PCR products were analyzed on 1% agarose gels, and bands were visualized by ethidium bromide staining.

[4] = tested on: COX-2 mRNA; experiment: as above; format: cell-based, mouse; conditions: 10, 50, or 100 μg/mL, LPS 2–12 h, GAPDH control
Method: as §2

[5] = tested on: iNOS mRNA; experiment: as above; format: cell-based, mouse; conditions: 10, 50, or 100 μg/mL, LPS 2–12 h, GAPDH control
Method: as §2

[6] = tested on: TNF-α mRNA; experiment: as above; format: cell-based, mouse; conditions: 10, 50, or 100 μg/mL, LPS 2–12 h, GAPDH control
Method: as §2

[7] = tested on: IL-1β mRNA; experiment: as above; format: cell-based, mouse; conditions: 10, 50, or 100 μg/mL, LPS 2–12 h, GAPDH control
Method: as §2

[8] = tested on: NF-κB (p65); experiment: Western blot of NF-κB translocation into the nucleus in LPS-stimulated RAW 264.7 cells; format: cell-based, mouse; conditions: CSP32 1 h prior to LPS 1 μg/mL
Method: (§3) Macrophages were incubated with or without LPS in the presence or absence of the AMPs. Cells were harvested, washed twice with ice-cold Tris-HCl-buffered saline (TBS), and resuspended in lysis buffer [100 mM Tris-HCl, 5 mM EDTA, 50 mM NaCl, 50 mM β- glycerophosphate, 50 mM NaF (sodium fluoride), 0.5% NP-40, 1% sodium deoxycholate, 0.1 mM sodium orthovanadate, and 1% phenylmethylsulfonyl fluoride (PMSF)]. The cytosolic fraction was obtained from the supernatant after […] centrifugation at 4°C for 20 min. Samples (20 μg in terms of protein) were separated by sodium dodecyl sulfate-polyacrylamide gel electrophoresis (SDS-PAGE) in a 10% gel and transferred to polyvinylidene difluoride (PVDF) membranes. The membranes were blocked with 5% nonfat milk in TBS with Tween 20 (0.1%) for 2 h and then incubated with primary antibodies specific for ERK, phospho-ERK, JNK, phospho-JNK, p38 MAPK, phospho-p38 MAPK (all them from Cell Signaling Technology), NF-κB, IκB, and phospho-IκB (1:1000; Santa Cruz Biotechnology). […] After three washes with TBS–Tween 20, the membrane was hybridized with an HRP-conjugated secondary antibody for 1 h. […] The immunoreactive proteins were detected by means of a LAS-3000 Luminescent image analyzer (Fuji Photo Film Co., Ltd., Tokyo, Japan).

[9] = tested on: COX-2; experiment: Western blot of protein expression in LPS-stimulated RAW 264.7 cells; format: cell-based, mouse; conditions: 10, 50, or 100 μg/mL, LPS 1 μg/mL, 24 h
Method: as §3

[10] = tested on: iNOS; experiment: as above; format: cell-based, mouse; conditions: 10, 50, or 100 μg/mL, LPS 1 μg/mL, 24 h
Method: as §3

[11] = tested on: Micrococcus luteus ATCC 9341; experiment: pH stability, residual antimicrobial activity; format: physicochemical; conditions: 1 h at room temperature, residual antimicrobial activity vs indicator strain, n = 3
Method: as §1

[12] = tested on: IκBα; experiment: Western blot of IκBα phosphorylation in LPS-stimulated RAW 264.7 cells; format: cell-based, mouse; conditions: CSP32 1 h prior to LPS 1 μg/mL
Method: as §3

[13] = tested on: p38 MAPK; experiment: Western blot of LPS-induced MAPK phosphorylation in RAW 264.7 cells; format: cell-based, mouse; conditions: 10–100 μg/mL, LPS 1 μg/mL
Method: (§4) Macrophages were incubated with or without LPS in the presence or absence of the AMPs. Cells were harvested, washed twice with ice-cold Tris-HCl-buffered saline (TBS), and resuspended in lysis buffer [100 mM Tris-HCl, 5 mM EDTA, 50 mM NaCl, 50 mM β- glycerophosphate, 50 mM NaF (sodium fluoride), 0.5% NP-40, 1% sodium deoxycholate, 0.1 mM sodium orthovanadate, and 1% phenylmethylsulfonyl fluoride (PMSF)]. The cytosolic fraction was obtained from the supernatant after […] centrifugation at 4°C for 20 min. Samples (20 μg in terms of protein) were separated by sodium dodecyl sulfate-polyacrylamide gel electrophoresis (SDS-PAGE) in a 10% gel and transferred to polyvinylidene difluoride (PVDF) membranes. The membranes were blocked with 5% nonfat milk in TBS with Tween 20 (0.1%) for 2 h and then incubated with primary antibodies specific for ERK, phospho-ERK, JNK, phospho-JNK, p38 MAPK, phospho-p38 MAPK (all them from Cell Signaling Technology), NF-κB, IκB, and phospho-IκB (1:1000; Santa Cruz Biotechnology). […] After three washes with TBS–Tween 20, the membrane was hybridized with an HRP-conjugated secondary antibody for 1 h. The membranes were washed three times for 10 min and developed with the ECL Western Blotting Detection System (GE Healthcare, Incheon, Republic of Korea,). The immunoreactive proteins were detected by means of a LAS-3000 Luminescent image analyzer (Fuji Photo Film Co., Ltd., Tokyo, Japan).

[14] = tested on: ERK; experiment: as above; format: cell-based, mouse; conditions: 10–100 μg/mL, LPS 1 μg/mL
Method: as §4

[15] = tested on: JNK; experiment: as above; format: cell-based, mouse; conditions: 10–100 μg/mL, LPS 1 μg/mL
Method: as §4

CC[C@H](C)[C@H](N)C1=N[C@H](C(=O)N[C@@H](CC(C)C)C(=O)N[C@H](CCC(=O)O)C(=O)N[C@H](C(=O)N[C@H]2CCCCNC(=O)[C@H](CC(N)=O)NC(=O)[C@@H](CC(=O)O)NC(=O)[C@H](Cc3c[nH]cn3)NC(=O)[C@@H](Cc3ccccc3)NC(=O)[C@H]([C@@H](C)CC)NC(=O)[C@@H](CCCN)NC2=O)[C@@H](C)CC)CS1 [CSP32] ({Ileψ(thiazoline)Cys}-L[dE]IK[dOrn]I[dF]H[dD]N; lactam 4-C; N-terminus assumed)
Effect on LPS-induced NO production [1]: attenuated the LPS-induced production of NO to a statistically significant extent | Residual activity (%) ([2]; heat treatment 30°C, 10 min): 100% | Residual activity (%) ([2]; heat treatment 30°C, 30 min, SD): 100±0.28% | Residual activity (%) ([2]; heat treatment 30°C, 60 min, SD): 100±0.34% | Residual activity (%) ([2]; heat treatment 50°C, 10 min, SD): 100±0.94% | Residual activity (%) ([2]; heat treatment 50°C, 30 min, SD): 98.40±0.39% | Residual activity (%) ([2]; heat treatment 50°C, 60 min, SD): 98.07±0.36% | Residual activity (%) ([2]; heat treatment 70°C, 10 min, SD): 98.07±0.41% | Residual activity (%) ([2]; heat treatment 70°C, 30 min, SD): 98.00±0.41% | Residual activity (%) ([2]; heat treatment 70°C, 60 min, SD): 98.07±0.39% | Residual activity (%) ([2]; heat treatment 90°C, 10 min, SD): 97.73±1.04% | Residual activity (%) ([2]; heat treatment 121°C, 15 min, SD): 65.40±0.17% | Effect on LPS-induced IL-6 mRNA expression [3]: dose-dependently attenuated the LPS-enhanced expression | Effect on LPS-induced COX-2 mRNA expression [4]: significantly attenuated iNOS and COX-2 mRNA upregulation in a dose-dependent manner | Effect on LPS-induced iNOS mRNA expression [5]: significantly attenuated iNOS and COX-2 mRNA upregulation in a dose-dependent manner | Effect on LPS-induced TNF-α mRNA expression [6]: dose-dependently attenuated the LPS-enhanced expression | Effect on LPS-induced IL-1β mRNA expression [7]: dose-dependently attenuated the LPS-enhanced expression | Effect on LPS-induced changes in the levels of p65 in the nucleus and cytoplasm [8]: attenuated | Effect on LPS-induced COX-2 protein expression [9]: significantly attenuated this induction in a dose-dependent manner | Effect on LPS-induced iNOS protein expression [10]: significantly attenuated this induction in a dose-dependent manner | Residual activity (%) ([11]; pH 2, then adjusted to pH 7.0, mean ± SD, SD): 61.33±1.04% | Residual activity (%) ([11]; pH 3, citrate with Na2HPO4, then adjusted to pH 7.0, mean ± SD, SD): 63.00±1.04% | Residual activity (%) ([11]; pH 4, citrate with Na2HPO4, then adjusted to pH 7.0, mean ± SD, SD): 89.60±3.44% | Residual activity (%) ([11]; pH 6, citrate with Na2HPO4, then adjusted to pH 7.0, mean ± SD, SD): 100±0.50% | Residual activity (%) ([11]; pH 7): 100% | Residual activity (%) ([11]; pH 8, Tris-HCl, then adjusted to pH 7.0, mean ± SD, SD): 100±0.20% | Residual activity (%) ([11]; pH 9, Tris-HCl, then adjusted to pH 7.0, mean ± SD, SD): 100±1.15% | Residual activity (%) ([11]; pH 10, NaHCO3 with NaOH, then adjusted to pH 7.0, mean ± SD, SD): 98±3.38% | Residual activity (%) ([11]; pH 11, NaHCO3 with NaOH, then adjusted to pH 7.0, mean ± SD, SD): 91.33±0.06% | Residual activity (%) ([11]; pH 12, then adjusted to pH 7.0, mean ± SD, SD): 91.77±0.06% | Effect on LPS-increased level of p-IκBα [12]: attenuated by CSP32 treatment (dose dependently) | Effect on LPS-induced phosphorylation of p38 MAPK [13]: Phosphorylation decreased in a dose-dependent manner | Effect on LPS-induced phosphorylation of ERK [14]: Phosphorylation decreased in a dose-dependent manner | Effect on LPS-induced phosphorylation of JNK [15]: Phosphorylation decreased in a dose-dependent manner
